From PubChem BioAssay AID248 (DTP/NCI, 2004)
Toxic doses and inconclusive results are not listed. No stated cut-off is given here; in the data, active means T/C of 150% or more; inactive means T/C below 125%.

System: L1210 leukemia ip in BDF1 mice, survival T/C
Test: NCI In Vivo Anticancer Drug Screen. Data for tumor model L1210 Leukemia (intraperitoneal) in B6D2F1 (BDF1) mice
Details: endpoint: mean survival time, higher = longer survival
How it was run: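 Ratio derived from survival: compound-dosed mice over vehicle-dosed mice, all bearing a transplantable tumor.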

[1] = dose: 75.0 mg/kg/injection, schedule: Q01DX001 (ip), vehicle: other
[2] = dose: 150.0 mg/kg/injection, schedule: Q01DX001 (ip), vehicle: other
[3] = dose: 50.0 mg/kg/injection, schedule: Q01DX009 (ip), vehicle: Klucel (hydroxypropylcellulose) (HPC)
[4] = dose: 100.0 mg/kg/injection, schedule: Q01DX009 (ip), vehicle: Klucel (hydroxypropylcellulose) (HPC)
[5] = dose: 200.0 mg/kg/injection, schedule: Q01DX009 (ip), vehicle: Klucel (hydroxypropylcellulose) (HPC)
[6] = dose: 75.0 mg/kg/injection, schedule: Q04DX003 (ip), vehicle: Klucel (hydroxypropylcellulose) (HPC)
[7] = dose: 150.0 mg/kg/injection, schedule: Q04DX003 (ip), vehicle: Klucel (hydroxypropylcellulose) (HPC)
[8] = dose: 300.0 mg/kg/injection, schedule: Q04DX003 (ip), vehicle: Klucel (hydroxypropylcellulose) (HPC)
[9] = dose: 100.0 mg/kg/injection, schedule: Q04DX002 (ip), vehicle: Klucel (hydroxypropylcellulose) (HPC)
[10] = dose: 100.0 mg/kg/injection, schedule: Q01DX009 (ip), vehicle: saline with Tween-80
[11] = dose: 200.0 mg/kg/injection, schedule: Q01DX009 (ip), vehicle: saline with Tween-80
[12] = dose: 400.0 mg/kg/injection, schedule: Q01DX009 (ip), vehicle: saline with Tween-80
[13] = dose: 100.0 mg/kg/injection, schedule: Q01DX001 (ip), vehicle: Klucel (hydroxypropylcellulose) (HPC)
[14] = dose: 200.0 mg/kg/injection, schedule: Q01DX001 (ip), vehicle: Klucel (hydroxypropylcellulose) (HPC)
[15] = dose: 400.0 mg/kg/injection, schedule: Q01DX001 (ip), vehicle: Klucel (hydroxypropylcellulose) (HPC)
[16] = dose: 200.0 mg/kg/injection, schedule: Q04DX002 (ip), vehicle: Klucel (hydroxypropylcellulose) (HPC)
[17] = dose: 400.0 mg/kg/injection, schedule: Q04DX002 (ip), vehicle: Klucel (hydroxypropylcellulose) (HPC)
[18] = dose: 100.0 mg/kg/injection, schedule: Q04DX003 (ip), vehicle: Klucel (hydroxypropylcellulose) (HPC)
[19] = dose: 200.0 mg/kg/injection, schedule: Q04DX003 (ip), vehicle: Klucel (hydroxypropylcellulose) (HPC)
[20] = dose: 400.0 mg/kg/injection, schedule: Q04DX003 (ip), vehicle: Klucel (hydroxypropylcellulose) (HPC)
[21] = dose: 50.0 mg/kg/injection, schedule: Q01DX001 (ip), vehicle: carboxymethylcellulose (CMC)
[22] = dose: 100.0 mg/kg/injection, schedule: Q01DX001 (ip), vehicle: carboxymethylcellulose (CMC)
[23] = dose: 200.0 mg/kg/injection, schedule: Q01DX001 (ip), vehicle: carboxymethylcellulose (CMC)
[24] = dose: 400.0 mg/kg/injection, schedule: Q01DX001 (ip), vehicle: carboxymethylcellulose (CMC)
[25] = dose: 100.0 mg/kg/injection, schedule: Q01DX001 (ip), vehicle: saline
[26] = dose: 200.0 mg/kg/injection, schedule: Q01DX001 (ip), vehicle: saline
[27] = dose: 400.0 mg/kg/injection, schedule: Q01DX001 (ip), vehicle: saline
[28] = dose: 75.0 mg/kg/injection, schedule: Q01DX001 (ip), vehicle: saline
[29] = dose: 150.0 mg/kg/injection, schedule: Q01DX001 (ip), vehicle: saline

Measured: T/C

ClC1=C(Cl)C2(Cl)C3C4CC(C(I)C4I)C3C1(Cl)C2(Cl)Cl (configuration not stated)
inactive: [1] 98 % of control | [2] 95 % of control

C/C=C/C=C/COC(=O)C=C(C)C
inactive: dose: 100.0 mg/kg/injection, schedule: Q04DX002 (ip), vehicle: saline 107 % of control | dose: 200.0 mg/kg/injection, schedule: Q04DX002 (ip), vehicle: saline 101 % of control | dose: 400.0 mg/kg/injection, schedule: Q04DX002 (ip), vehicle: saline 107 % of control

COc1ccc([N+](=O)[O-])cc1NC(=O)N(C1CCCCC1)C1CCCCC1
inactive: [3] 96 % of control | [4] 93 % of control | [5] 96 % of control

Cc1cc(C(=O)O)c(C)n1-c1cccc2ccccc12
inactive: [6] 98 % of control | [4] 102 % of control | [7] 98 % of control | [5] 108 % of control | [8] 97 % of control | dose: 400.0 mg/kg/injection, schedule: Q01DX009 (ip), vehicle: Klucel (hydroxypropylcellulose) (HPC) 113 % of control

S=c1[nH]c(=S)c2[nH]cnc(=S)c2[nH]1
inactive: dose: 2.0 mg/kg/injection, schedule: Q01DX Z (ip), vehicle: carboxymethylcellulose (CMC) 103 % of control | dose: 4.0 mg/kg/injection, schedule: Q01DX Z (ip), vehicle: carboxymethylcellulose (CMC) 91 % of control | dose: 8.0 mg/kg/injection, schedule: Q01DX Z (ip), vehicle: carboxymethylcellulose (CMC) 89 % of control | dose: 12.5 mg/kg/injection, schedule: Q01DX Z (ip), vehicle: carboxymethylcellulose (CMC) 91 % of control | dose: 25.0 mg/kg/injection, schedule: Q01DX Z (ip), vehicle: carboxymethylcellulose (CMC) 96 % of control

NC(=S)N/N=C(\c1ccccc1)c1cccc2ccccc12
inactive: dose: 25.0 mg/kg/injection, schedule: Q01DX009 (ip), vehicle: Klucel (hydroxypropylcellulose) (HPC) 91 % of control | [3] 91 % of control | [9] 93 % of control

O=C1N=C(C(F)(F)F)N=C1c1[nH]c(C(F)(F)F)nc1O
inactive: [10] 95 % of control | dose: 100.0 mg/kg/injection, schedule: Q04DX003 (ip), vehicle: saline with Tween-80 104 % of control | [11] 98 % of control | dose: 200.0 mg/kg/injection, schedule: Q04DX003 (ip), vehicle: saline with Tween-80 100 % of control | [12] 102 % of control | dose: 400.0 mg/kg/injection, schedule: Q04DX003 (ip), vehicle: saline with Tween-80 105 % of control

O=S(=O)(Nc1cc(S(=O)(=O)c2ccccc2)c(NS(=O)(=O)c2ccccc2)c(Cl)c1Cl)c1ccccc1
inactive: [6] 103 % of control | [7] 92 % of control | [8] 95 % of control

CN1c2ccccc2C(C)(C)C12C=Cc1cc([N+](=O)[O-])cc([N+](=O)[O-])c1O2 (configuration not stated)
inactive: [13] 105 % of control | [14] 105 % of control | [15] 97 % of control

COC(=O)c1ccc([N+](=O)[O-])o1
inactive: dose: 50.0 mg/kg/injection, schedule: Q04DX002 (ip), vehicle: Klucel (hydroxypropylcellulose) (HPC) 104 % of control | [4] 93 % of control | [9] 90 % of control | [5] 111 % of control | [16] 101 % of control | [17] 87 % of control

Nc1cc(Cl)c2n[nH]nc2n1
inactive: [1] 96 % of control | [2] 102 % of control | dose: 300.0 mg/kg/injection, schedule: Q01DX001 (ip), vehicle: other 100 % of control

Cc1cccc(CN2C(=O)c3ccccc3C2=O)c1
inactive: [13] 100 % of control | [14] 103 % of control | [15] 102 % of control

Cn1nc2c(c1-c1ccc(O)cc1)CCCc1ccccc1-2
inactive: [18] 100 % of control | [19] 98 % of control | [20] 98 % of control

N#Cc1ccc(-c2ccc(N)cc2)cc1
inactive: [21] 88 % of control | [22] 90 % of control | [23] 88 % of control | [24] 90 % of control

COc1cc(-c2cc(OC)c(N=N/C(=N/Nc3ccc([N+](=O)[O-])cc3)c3ccc([N+](=O)[O-])cc3)cc2Cl)c(Cl)cc1N=N/C(=N\Nc1ccc([N+](=O)[O-])cc1)c1ccc([N+](=O)[O-])cc1
inactive: dose: 50.0 mg/kg/injection, schedule: Q01DX001 (ip), vehicle: saline 103 % of control | [25] 94 % of control | [26] 103 % of control | [27] 94 % of control

NC(N)=N/N=C/Cc1ccccc1
inactive: dose: 62.5 mg/kg/injection, schedule: Q01DX Z (ip), vehicle: saline 94 % of control

O=c1[nH]cc(S(=O)(=O)Nc2ccccc2)c(=O)[nH]1
inactive: dose: 25.0 mg/kg/injection, schedule: Q01DX001 (ip), vehicle: saline with Tween-80 106 % of control | dose: 50.0 mg/kg/injection, schedule: Q01DX001 (ip), vehicle: saline with Tween-80 103 % of control | dose: 100.0 mg/kg/injection, schedule: Q01DX001 (ip), vehicle: saline with Tween-80 103 % of control

O=C(Nc1ccc(F)cc1)Nc1cc([N+](=O)[O-])ccc1F
inactive: [18] 117 % of control | [19] 102 % of control | [20] 101 % of control

CCCC[n+]1cc(C(N)=O)cc2ccccc21
inactive: [28] 96 % of control | [29] 95 % of control

O=C(Nc1cccc(O)c1)Nc1cccc(Cl)c1Cl
inactive: [10] 91 % of control | [11] 92 % of control | [12] 94 % of control

CCOP(=O)(Nc1ccc2c(c1)Cc1c-2cc(Cl)c(NC(C)=O)c1Cl)OCC
inactive: [21] 97 % of control | [22] 92 % of control | [23] 94 % of control | [24] 92 % of control

Cc1ccc(Nc2ncnc3nc[nH]c23)cc1CN(CCO)CCO
inactive: [25] 101 % of control | [26] 101 % of control | [27] 95 % of control

O=C1CCCNc2c(Br)cc(Br)cc21
inactive: [22] 91 % of control | [23] 94 % of control | [24] 100 % of control

Cc1ccnc(NS(=O)(=O)c2ccc(N=Nc3c(N)nc(N)[nH]c3=O)cc2)n1
inactive: [22] 103 % of control | [23] 97 % of control | [24] 103 % of control

BrC1C=CC=CN1C/C=C/CN1C=CC=CC1Br (configuration not stated)
inactive: [28] 96 % of control | [29] 97 % of control

O=C1Nc2ccc(Br)cc2C1=Nc1ccc(Cl)cc1
inactive: [9] 95 % of control | [16] 92 % of control | [17] 89 % of control
